Results as given in PMC10096376, “Insecticidal and Synergistic Potential of Three Monoterpenoids against the Yellow Fever Mosquito, Aedes aegypti (Diptera: Culicidae), and the House Fly, Musca domestica (Diptera: Muscidae)” (Molecules, 2023).
Read-outs that look alike come from different tables or passages of the source.

What was measured:
Aedes aegypti [1] = experiment: Co-toxicity assay with permethrin (topical); conditions: for 1-h knockdown Co-Toxicity Factor / 24-h mortality Co-Toxicity Factor: >+20 potentiation, <−20 antagonism, −20 to +20 additive
Protocol: (§1) For Ae. aegypti, synergism assays were performed similar to the topical applications described previously, with the following modifications: 2 doses (2 µg/mosquito and 10 µg/mosquito) of each monoterpenoid were applied as synergists, similar to previous studies exploring the synergistic potential of natural products in combination with an intermediate dose-level of insecticide alone.
(§2) Mosquitoes were transferred to deli cups and kept at a controlled temperature and humidity (the same conditions as described for the topical application of insecticides and monoterpenoids alone). Again, a minimum of 3 separate rearing cohorts were used among replicates of each dose combination.
(§3) Dose responses were modeled via probit analysis, and their resulting estimates were obtained. […] A control correction option (OPTC command) was used to account for responses to the vehicle control treatments. Co-toxicity values were calculated by the method of [29]. A co-toxicity factor of >+20 signifies potentiation, <−20 antagonism, and −20 to +20 additive.

Musca domestica [2] = experiment: Co-toxicity assay with permethrin (topical); assay type: in vivo; conditions: for 1-h% Mean Knockdown ± SEM, Synergist Alone / 24-h% Mean Mortality ± SEM, Synergist Alone: 10.2 μg PBO, 70 μg carvone, 190 μg menthone, 80 μg fenchone per fly; for 1-h% Mean Knockdown ± SEM, Mixture: near-sublethal synergist dose (10.2 μg PBO, 70 μg carvone, 190 μg menthone, 80 μg fenchone) + permethrin 18 ng; for 1-h knockdown Co-Toxicity Factor / 24-h mortality Co-Toxicity Factor: near-sublethal synergist dose + permethrin, >+20 potentiation, <−20 antagonism, −20 to +20 additive; for times as potent a synergist of permethrin as PBO: 24-h mortality
Protocol: […]. Each dose was formulated in a total volume of 1.5 mL of acetone. A dose of permethrin that produced approximately 50% mortality (18 ng) was used as the treatment. Female flies were sorted into groups of 20 per synergism assay and dosed as previously mentioned (i.e., the same way as in the topical toxicity assays). Flies were assessed for mortality at 24 h.

Aedes aegypti [3] = test system: Aedes aegypti
Protocol: as §1, §2, §3

acetylcholinesterase = acetylcholinesterase (Musca domestica, UniProt Q7YWJ9); experiment: In vitro inhibition of acetylcholinesterase (Ellman), head homogenate; assay type: biochemical; conditions: at 1 mM, M. domestica preparation; read-out: inhibition of AChE
Sequence of acetylcholinesterase (Q7YWJ9 81-660): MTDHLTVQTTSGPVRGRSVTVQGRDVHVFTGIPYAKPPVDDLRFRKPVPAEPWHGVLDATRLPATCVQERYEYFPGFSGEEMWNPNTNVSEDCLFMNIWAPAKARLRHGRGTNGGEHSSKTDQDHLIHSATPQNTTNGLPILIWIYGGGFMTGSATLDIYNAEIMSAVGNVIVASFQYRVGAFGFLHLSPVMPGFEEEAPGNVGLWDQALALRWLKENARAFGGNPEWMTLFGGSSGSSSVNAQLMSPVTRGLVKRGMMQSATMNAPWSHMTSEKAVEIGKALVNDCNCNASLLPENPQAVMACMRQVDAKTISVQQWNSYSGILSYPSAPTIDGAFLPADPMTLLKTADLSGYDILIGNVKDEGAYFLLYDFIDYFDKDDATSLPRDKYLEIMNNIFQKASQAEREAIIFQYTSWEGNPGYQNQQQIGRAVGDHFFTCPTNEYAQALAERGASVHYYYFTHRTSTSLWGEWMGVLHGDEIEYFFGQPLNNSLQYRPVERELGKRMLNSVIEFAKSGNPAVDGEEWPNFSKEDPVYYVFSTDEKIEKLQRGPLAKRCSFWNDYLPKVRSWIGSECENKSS
Protocol: Acetylcholinesterase inhibition was conducted on homogenates of whole-body Ae. aegypti and M. domestica heads using Ellman’s method. For Ae. aegypti, 10 whole female adults were placed in 2 mL microcentrifuge screw cap tubes with 3–5.2 mm zircon/silica beads and homogenized in 500 μL of sodium phosphate buffer (100 mM, pH 7.8) using a Precellys Evolution bead beater (Bertin Corp., Rockville, MD, USA) set to two 15-s pulses of 5600 rpm. Afterward, 500 μL of Triton X-100 buffer (100 mM sodium phosphate, pH 7.8, 0.6% Triton X-100) was added to each tube (final Triton X-100 concentration: 0.3%), inverted several times to mix up the sample, and then centrifuged at 10,000× g for 4 min at 4 °C. The supernatant was used as the enzyme source. The same process was carried out with M. domestica, except three heads were processed in a 1000:1000 μL sodium phosphate buffer and Triton X-100 buffer in the same manner as just described.
Concentration responses were conducted in the wells of a 96-well, clear, flat-bottomed plate. Inhibitor solutions of methomyl or monoterpenoids were first dissolved in DMSO (dimethyl sulfoxide) and then diluted in sodium phosphate buffer (100 mM, pH 7.8, DMSO concentration of 1%). A volume of 10 μL of the inhibitor solution was added to each well, along with 90 μL of sodium phosphate buffer, and finally 10 μL of homogenate. This was incubated on a plate shaker at 400 rpm for 10 min at room temperature. The final concentrations for methomyl were 100 μM, 10 μM, 1 μM, 100 nM, 10 nM, 1 nM, and 0 nM. For the monoterpenoids, the same range was used except the top concentration was 1 mM and the bottom non-zero concentration was 10 nM. The final concentration of DMSO in all wells was 0.09%.
After the 10-min incubation, 100 μL of Ellman’s reagent prepared in sodium phosphate buffer and each corresponding inhibitor concentration were added to the wells using a multichannel pipette.
as §3

Aedes aegypti [4] = test system: Aedes aegypti; remark: listed apart in the source
Musca domestica [5] = conditions: 24 h, topical, adult females, susceptible strain
rat = conditions: in vivo; cited from earlier work
rabbit = conditions: in vivo; cited from earlier work
[6] = 2 μg synergist + permethrin 0.6 ng/mosquito
[7] = 10 μg synergist + permethrin 0.6 ng/mosquito
[8] = 10 μg synergist per Ae. aegypti
[9] = 2 μg synergist + methomyl 6 ng/mosquito
[10] = 2 μg synergist + methomyl, >+20 potentiation, <−20 antagonism, −20 to +20 additive
[11] = 10 μg synergist + methomyl 6 ng/mosquito
[12] = 10 μg synergist + methomyl, >+20 potentiation, <−20 antagonism, −20 to +20 additive
[13] = 24 h, topical, adult females, susceptible strain

Row | Compound | 1-h% Mean Knockdown ± SEM, Mixture (Aedes aegypti [1]; [6]) [%] | 1-h knockdown Co-Toxicity Factor (Aedes aegypti [1]; 2 μg synergist + permethrin) | 24-h mortality Co-Toxicity Factor (Aedes aegypti [1]; 2 μg synergist + permethrin) | 1-h% Mean Knockdown ± SEM, Synergist Alone (Aedes aegypti [1]; 2 μg synergist per Ae. aegypti) [%] | 24-h% Mean Mortality ± SEM, Synergist Alone (Aedes aegypti [1]; 2 μg synergist per Ae. aegypti) [%] | 1-h% Mean Knockdown ± SEM, Mixture (Aedes aegypti [1]; [7]) [%] | 1-h knockdown Co-Toxicity Factor (Aedes aegypti [1]; 10 μg synergist + permethrin) | 1-h% Mean Knockdown ± SEM, Synergist Alone (Aedes aegypti [1]; [8]) [%] | 24-h% Mean Mortality ± SEM, Synergist Alone (Aedes aegypti [1]; [8]) [%] | 1-h% Mean Knockdown ± SEM, Synergist Alone (Musca domestica [2]) [%] | 24-h% Mean Mortality ± SEM, Synergist Alone (Musca domestica [2]) [%] | 1-h% Mean Knockdown ± SEM, Mixture (Musca domestica [2]) [%] | 1-h knockdown Co-Toxicity Factor (Musca domestica [2]) | 24-h mortality Co-Toxicity Factor (Musca domestica [2]) | 1-h% Mean Knockdown ± SEM, Synergist Alone (Aedes aegypti [3]; 2 μg applied) [%] | 24-h% Mean Mortality ± SEM, Synergist Alone (Aedes aegypti [3]; 2 μg applied) [%] | 48-h% Mean Mortality ± SEM, Synergist Alone (Aedes aegypti [3]; 2 μg applied) [%] | 24-h mortality Co-Toxicity Factor (Aedes aegypti [1]; 10 μg synergist + permethrin) | times as potent a synergist of permethrin as PBO (Musca domestica [2]) | 1-h% Mean Knockdown ± SEM, Mixture (Aedes aegypti [3]; [9]) [%] | other results
1 | CCCCOCCOCCOCc1cc2c(cc1CCC)OCO2 [PBO, piperonyl butoxide, reference compound] | 52.5 ± 7.5 | −44.7 | 25 | 7.5 ± 2.5 | 12.5 ± 6.3 | 60 ± 14.7 | −39 | 22.5 ± 4.8 | 72.5 ± 8.5 | 2 ± 2 | 6 ± 2.9 | 96 ± 4 | 16.2 | 55.9 | 7.5 ± 2.5 | 12.5 ± 6.3 | 15 ± 3.4 |  |  |  | 1-h knockdown Co-Toxicity Factor (Aedes aegypti [3]; in vivo): −5.3; 1-h% Mean Knockdown ± SEM, Mixture (Aedes aegypti [3]; in vivo): 90 ± 10%; 24-h mortality Co-Toxicity Factor (Aedes aegypti [3]; in vivo): 14.3; 48-h mortality Co-Toxicity Factor (Aedes aegypti [3]; in vivo): 20.9
2 | CC12CCC(C1)C(C)(C)C2=O [Fenchone, L-fenchone] | 100 ± 0 | 32.0 | 160 | 0 ± 0 | 2.5 ± 2.5 | 100 ± 0 | 16 | 10 ± 4.1 | 2.5 ± 2.5 | 0 ± 0 | 0 ± 0 | 100 ± 0 | 24.0 | 63.4 | 0 ± 0 | 2.5 ± 2.5 | 7.5 ± 4.8 | 121 | 1.1 | 83.3 ± 3.3 | 1-h knockdown Co-Toxicity Factor (Aedes aegypti [3]; [10]): −5; 24-h mortality Co-Toxicity Factor (Aedes aegypti [3]; [10]): −11; 48-h mortality Co-Toxicity Factor (Aedes aegypti [3]; [10]): −17; 24-h mortality Co-Toxicity Factor (Aedes aegypti [3]; 2 μg synergist + methomyl, >+20 potentiation, <−20 antagonism, −20 to +20 additive, listed as fenchone): negative; 1-h% Mean Knockdown ± SEM, Synergist Alone (Aedes aegypti [3]; 10 μg applied): 10 ± 4.1%; 24-h% Mean Mortality ± SEM, Synergist Alone (Aedes aegypti [3]; 10 μg applied): 2.5 ± 2.5%; 48-h% Mean Mortality ± SEM, Synergist Alone (Aedes aegypti [3]; 10 μg applied): 10 ± 4.1%; 1-h% Mean Knockdown ± SEM, Mixture (Aedes aegypti [3]; [11]): 93.3 ± 6.7%; 1-h knockdown Co-Toxicity Factor (Aedes aegypti [3]; [12]): −4; 24-h mortality Co-Toxicity Factor (Aedes aegypti [3]; [12]): 22; 48-h mortality Co-Toxicity Factor (Aedes aegypti [3]; [12]): 7; inhibition at 1000 µM (acetylcholinesterase): 1.9 ± 0.3%; LD10 (95% CI) (Aedes aegypti [4]; [13]): 7600 (5000–9500) b ng/mg body weight; LD50 (95% CI) (Aedes aegypti [4]; [13]): 11,300 (10,200–53,400) d ng/mg body weight; LD90 (95% CI) (Aedes aegypti [4]; [13]): 42,000 (28,800–94,900) d ng/mg body weight; LD10 (95% CI) (Musca domestica [5]): 8800 (8100–9400) d ng/mg body weight; LD50 (95% CI) (Musca domestica [5]): 13,200 (12,600–13,800) d ng/mg body weight; LD90 (95% CI) (Musca domestica [5]): 19,900 (18,600–21,600) d ng/mg body weight; Oral LD50 (rat): 6160 (rt) mg compound per kg body weight; Dermal LD50 (rabbit): 5000 (rb) mg compound per kg body weight
3 | CC(C)[C@@H]1CC[C@@H](C)CC1=O [Menthone, L-menthone] | 100 ± 0 | 19.8 | 132 | 7.5 ± 4.8 | 5 ± 2.9 | 100 ± 0 | 13 | 12.5 ± 4.8 | 15 ± 5 | 4 ± 2.4 | 0 ± 0 | 95 ± 2.9 | 12.6 | 48.4 | 7.5 ± 4.8 | 5 ± 2.9 | 7.5 ± 2.5 | 83 | 0.9 | 100 ± 0 | times as strong a synergist of permethrin as PBO (Aedes aegypti [1]; 24-h mortality, 2 μg synergist): 5.3; 1-h knockdown Co-Toxicity Factor (Aedes aegypti [3]; [10]): 0; 48-h mortality Co-Toxicity Factor (Aedes aegypti [3]; [10]): 7; 1-h% Mean Knockdown ± SEM, Synergist Alone (Aedes aegypti [3]; 10 μg applied): 12.5 ± 4.8%; 24-h% Mean Mortality ± SEM, Synergist Alone (Aedes aegypti [3]; 10 μg applied): 15 ± 5%; 48-h% Mean Mortality ± SEM, Synergist Alone (Aedes aegypti [3]; 10 μg applied): 22.5 ± 7.5%; 1-h% Mean Knockdown ± SEM, Mixture (Aedes aegypti [3]; [11]): 100 ± 0%; 1-h knockdown Co-Toxicity Factor (Aedes aegypti [3]; [12]): 0; 24-h mortality Co-Toxicity Factor (Aedes aegypti [3]; [12]): 29; 48-h mortality Co-Toxicity Factor (Aedes aegypti [3]; [12]): 7; times as effective a synergist of methomyl as PBO (Aedes aegypti [3]; 24-h mortality, 2 μg synergist): 2.0; inhibition at 1000 µM (acetylcholinesterase): 3.7 ± 1.2%; LD10 (95% CI) (Aedes aegypti [4]; [13]): 5000 (1000–6300) b ng/mg body weight; LD90 (95% CI) (Aedes aegypti [4]; [13]): 10,000 (8500–13,100) c ng/mg body weight; times as toxic as fenchone (Aedes aegypti [4]; at LD10): about 1.5; times as toxic as fenchone (Aedes aegypti [4]; at LD50): about 1.5; times as toxic as fenchone (Aedes aegypti [4]; at LD90): about 4.2; LD10 (95% CI) (Musca domestica [5]): 5300 (5100–5400) c ng/mg body weight; LD90 (95% CI) (Musca domestica [5]): 8800 (8400–9400) c ng/mg body weight
